Assay results reported in patent US9717243B2, “Piperidinecarboxylic acid derivatives as fungicides” (priority 2013, dated 2017).

Test: LogP by HPLC on reversed phase columns (EEC directive 79/831 Annex V.A8)
Format: physicochemical
Details: not given
Experimental: Calibration was done with straight-chain alkan2-ones (with 3 to 16 carbon atoms) with known LogP values (measurement of LogP values using retention times with linear interpolation between successive alkanones). Lambda-max-values were determined using UV-spectra from 200 nm to 400 nm and the peak values of the chromatographic signals.

Structure (SMILES) | Log P[a]
C=CCOC(=O)C1(c2nc(C3=NOC(c4c(F)cccc4F)C3)cs2)CCN(C(=O)Cn2nc(C(F)F)cc2C(F)F)CC1 (centres unmarked) [Example I-43] | 3.83
C=CCOC(=O)C1(c2nc(C3=NOC(c4ccccc4)C3)cs2)CCN(C(=O)Cn2nc(C(F)F)cc2C(F)F)CC1 (centres unmarked) [Example I-44] | 3.85
C#CCOc1ccccc1C1CC(c2csc(C3(C(=O)OCC=C)CCN(C(=O)Cn4nc(C(F)F)cc4C(F)F)CC3)n2)=NO1 (centres unmarked) [Example I-45] | 3.96
C#CCOc1ccc(F)c(F)c1C1CC(c2csc(C3(C(=O)OCC=C)CCN(C(=O)Cn4nc(C(F)F)cc4C(F)F)CC3)n2)=NO1 (centres unmarked) [Example I-46] | 3.94
CSCCOC(=O)C1(c2nc(C3=NOC(c4c(Cl)cccc4OS(C)(=O)=O)C3)cs2)CCN(C(=O)Cn2nc(C(F)F)cc2C(F)F)CC1 (centres unmarked) [Example I-47] | 3.85
CSCCOC(=O)C1(c2nc(C3=NOC(c4c(F)cccc4F)C3)cs2)CCN(C(=O)Cn2nc(C(F)F)cc2C(F)F)CC1 (centres unmarked) [Example I-49] | 3.87
CSCCOC(=O)C1(c2nc(C3=NOC(c4ccccc4)C3)cs2)CCN(C(=O)Cn2nc(C(F)F)cc2C(F)F)CC1 (centres unmarked) [Example I-50] | 3.89
C#CCOc1ccccc1C1CC(c2csc(C3(C(=O)OCCSC)CCN(C(=O)Cn4nc(C(F)F)cc4C(F)F)CC3)n2)=NO1 (centres unmarked) [Example I-51] | 4.01
C#CCOc1ccc(F)c(F)c1C1CC(c2csc(C3(C(=O)OCCSC)CCN(C(=O)Cn4nc(C(F)F)cc4C(F)F)CC3)n2)=NO1 (centres unmarked) [Example I-52] | 3.99
CS(=O)(=O)Oc1cccc(Cl)c1C1CC(c2csc(C3(C(=O)OC4CCOC4)CCN(C(=O)Cn4nc(C(F)F)cc4C(F)F)CC3)n2)=NO1 (centres unmarked) [Example I-53] | 3.39
O=C(Cn1nc(C(F)F)cc1C(F)F)N1CCC(C(=O)OC2CCOC2)(c2nc(C3=NOC(c4c(F)cccc4F)C3)cs2)CC1 (centres unmarked) [Example I-55] | 3.39
O=C(Cn1nc(C(F)F)cc1C(F)F)N1CCC(C(=O)OC2CCOC2)(c2nc(C3=NOC(c4ccccc4)C3)cs2)CC1 (centres unmarked) [Example I-56] | 3.39
CS(=O)(=O)Oc1ccccc1C1CC(c2csc(C3(C(=O)OC4CCOC4)CCN(C(=O)Cn4nc(C(F)F)cc4C(F)F)CC3)n2)=NO1 (centres unmarked) [Example I-57] | 3.21
C#CCOc1ccccc1C1CC(c2csc(C3(C(=O)OC4CCOC4)CCN(C(=O)Cn4nc(C(F)F)cc4C(F)F)CC3)n2)=NO1 (centres unmarked) [Example I-58] | 3.55
C#CCOc1ccc(F)c(F)c1C1CC(c2csc(C3(C(=O)OC4CCOC4)CCN(C(=O)Cn4nc(C(F)F)cc4C(F)F)CC3)n2)=NO1 (centres unmarked) [Example I-59] | 3.55
COC(=O)C1(c2nc(C3=NOC(c4c(Cl)cccc4OS(C)(=O)=O)C3)cs2)CCN(C(=O)Cn2nc(C(F)F)cc2C)CC1 (centres unmarked) [Example I-60] | 3.19
COC(=O)C1(c2nc(C3=NOC(c4c(F)cccc4F)C3)cs2)CCN(C(=O)Cn2nc(C(F)F)cc2C)CC1 (centres unmarked) [Example I-62] | 3.17

Structure (SMILES) | Log P[a]
COC(=O)C1(c2nc(C3=NOC(c4ccccc4)C3)cs2)CCN(C(=O)Cn2nc(C(F)F)cc2C)CC1 (centres unmarked) [Example I-63] | 3.17
COC(=O)C1(c2nc(C3=NOC(c4ccccc4OS(C)(=O)=O)C3)cs2)CCN(C(=O)Cn2nc(C(F)F)cc2C)CC1 (centres unmarked) [Example I-64] | 2.96
C#CCOc1ccccc1C1CC(c2csc(C3(C(=O)OC)CCN(C(=O)Cn4nc(C(F)F)cc4C)CC3)n2)=NO1 (centres unmarked) [Example I-65] | 3.33
COC(=O)C1(c2nc(C3=NOC(c4c(Cl)cccc4OS(C)(=O)=O)C3)cs2)CCN(C(=O)Cn2nc(C(F)(F)F)cc2C)CC1 (centres unmarked) [Example I-67] | 3.55
COC(=O)C1(c2nc(C3=NOC(c4c(F)cccc4F)C3)cs2)CCN(C(=O)Cn2nc(C(F)(F)F)cc2C)CC1 (centres unmarked) [Example I-69] | 3.55
COC(=O)C1(c2nc(C3=NOC(c4ccccc4)C3)cs2)CCN(C(=O)Cn2nc(C(F)(F)F)cc2C)CC1 (centres unmarked) [Example I-70] | 3.55
COC(=O)C1(c2nc(C3=NOC(c4ccccc4OS(C)(=O)=O)C3)cs2)CCN(C(=O)Cn2nc(C(F)(F)F)cc2C)CC1 (centres unmarked) [Example I-71] | 3.33
C#CCOc1ccccc1C1CC(c2csc(C3(C(=O)OC)CCN(C(=O)Cn4nc(C(F)(F)F)cc4C)CC3)n2)=NO1 (centres unmarked) [Example I-72] | 3.71
C#CCOc1ccc(F)c(F)c1C1CC(c2csc(C3(C(=O)OC)CCN(C(=O)Cn4nc(C(F)(F)F)cc4C)CC3)n2)=NO1 (centres unmarked) [Example I-73] | 3.71
COC(=O)C1(c2nc(C3=NOC(c4c(Cl)cccc4OS(C)(=O)=O)C3)cs2)CCN(C(=O)Cn2nc(C)cc2C(F)F)CC1 (centres unmarked) [Example I-74] | 3.15
COC(=O)C1(c2nc(C3=NOC(c4c(F)cccc4F)C3)cs2)CCN(C(=O)Cn2nc(C)cc2C(F)F)CC1 (centres unmarked) [Example I-75] | 3.11
C#CCOc1ccc(F)c(F)c1C1CC(c2csc(C3(C(=O)OC)CCN(C(=O)Cn4nc(C)cc4C(F)F)CC3)n2)=NO1 (centres unmarked) [Example I-76] | 3.09
COCCOC(=O)C1(c2nc(C3=NOC(c4c(Cl)cccc4OS(C)(=O)=O)C3)cs2)CCN(C(=O)Cn2nc(C(F)F)cc2C(F)F)CC1 (centres unmarked) [Example I-77] | 3.48
C#CCOC(=O)C1(c2nc(C3=NOC(c4c(Cl)cccc4OS(C)(=O)=O)C3)cs2)CCN(C(=O)Cn2nc(C(F)F)cc2C(F)F)CC1 (centres unmarked) [Example I-78] | 3.58
COC(=O)C1(c2nc(C3=NOC(c4ccccc4OS(C)(=O)=O)C3)cs2)CCN(C(=O)Nc2cc(C(F)(F)F)nn2C)CC1 (centres unmarked) [Example I-79] | 3.00
C#CCOc1ccccc1C1CC(c2csc(C3(C(=O)OC)CCN(C(=O)Nc4cc(C(F)(F)F)nn4C)CC3)n2)=NO1 (centres unmarked) [Example I-80] | 3.35
C#CCOc1ccc(F)c(F)c1C1CC(c2csc(C3(C(=O)OC)CCN(C(=O)Nc4cc(C(F)(F)F)nn4C)CC3)n2)=NO1 (centres unmarked) [Example I-81] | 3.35

Results, then the molecule that gave them:

Log P[a] | Structure (SMILES)
2.02 | NC(=S)C1(C(=O)OC2CCOC2)CCN(C(=O)Cn2nc(C(F)F)cc2C(F)F)CC1 (centres unmarked) [II-1]
2.49 | CSCCOC(=O)C1(C(N)=S)CCN(C(=O)Cn2nc(C(F)F)cc2C(F)F)CC1 [II-2]
2.42 | C=CCOC(=O)C1(C(N)=S)CCN(C(=O)Cn2nc(C(F)F)cc2C(F)F)CC1 [II-3]
2.90 | NC(=S)C1(C(=O)OCc2ccccc2)CCN(C(=O)Cn2nc(C(F)F)cc2C(F)F)CC1 [II-4]
1.75 | COC(=O)C1(C(N)=S)CCN(C(=O)Cn2nc(C)cc2C(F)F)CC1 [II-5]
2.08 | COC(=O)C1(C(N)=S)CCN(C(=O)Cn2nc(C(F)(F)F)cc2C)CC1 [II-6]
1.68 | COC(=O)C1(C(N)=S)CCN(C(=O)Cn2nc(C(F)F)cc2C)CC1 [II-7]
2.52 | CC(C)OC(=O)C1(C(N)=S)CCN(C(=O)Cn2nc(C(F)F)cc2C(F)F)CC1 [II-9]
2.26 | CCOC(=O)C1(C(N)=S)CCN(C(=O)Cn2nc(C(F)F)cc2C(F)F)CC1 [II-10]
2.23 | COC(=O)C1(C(N)=S)CCN(C(=O)Nc2cc(C(F)F)ccc2C(F)F)CC1 [II-13]
1.30 | COC(=O)C1(C(N)=S)CCN(C(=O)Nc2cn(C(F)F)nc2C)CC1 [II-14]
2.02 | COC(=O)C1(C(N)=S)CCN(C(=O)Nc2cc(C)ccc2C)CC1 [II-15]
1.22 | COC(=O)C1(C(N)=S)CCN(C(=O)Nc2cn(C)nc2C(F)F)CC1 [II-16]
2.27 | C#CCOC(=O)C1(C(N)=S)CCN(C(=O)Cn2nc(C(F)F)cc2C(F)F)CC1 [II-17]
2.10 | COCCOC(=O)C1(C(N)=S)CCN(C(=O)Cn2nc(C(F)F)cc2C(F)F)CC1 [II-18]
1.74 | COC(=O)C1(C(N)=S)CCN(C(=O)Nc2cc(C(F)(F)F)nn2C)CC1 [II-19]
2.26 | N#CC1(C(=O)OC2CCOC2)CCN(C(=O)Cn2nc(C(F)F)cc2C(F)F)CC1 (centres unmarked) [IV-1]
2.32 | COCCOC(=O)C1(C#N)CCN(C(=O)Cn2nc(C(F)F)cc2C(F)F)CC1 [IV-2]
2.78 | CSCCOC(=O)C1(C#N)CCN(C(=O)Cn2nc(C(F)F)cc2C(F)F)CC1 [IV-3]
2.52 | C#CCOC(=O)C1(C#N)CCN(C(=O)Cn2nc(C(F)F)cc2C(F)F)CC1 [IV-4]
2.71 | C=CCOC(=O)C1(C#N)CCN(C(=O)Cn2nc(C(F)F)cc2C(F)F)CC1 [IV-5]
3.23 | N#CC1(C(=O)OCc2ccccc2)CCN(C(=O)Cn2nc(C(F)F)cc2C(F)F)CC1 [IV-6]
2.32 | COC(=O)C1(C#N)CCN(C(=O)Cn2nc(C(F)(F)F)cc2C)CC1 [IV-7]
1.10 | Cc1cc(C(F)F)nn1CC(=O)N1CCC(C#N)(C(=O)O)CC1 [IV-8]
1.89 | COC(=O)C1(C#N)CCN(C(=O)Cn2nc(C(F)F)cc2C)CC1 [IV-9]

Same assay, conditions: Table 1, compounds of formula (I); LC-UV, acidic range, 0.1% formic acid in water and acetonitrile as eluent

Structure (SMILES) | Log P[a]
CSCCOC(=O)C1(c2nc(C3=NOC(c4ccccc4-c4ccccc4)C3)cs2)CCN(C(=O)Cn2nc(C(F)F)cc2C(F)F)CC1 (centres unmarked) [Example I-48] | 4.77
O=C(Cn1nc(C(F)F)cc1C(F)F)N1CCC(C(=O)OC2CCOC2)(c2nc(C3=NOC(c4ccccc4-c4ccccc4)C3)cs2)CC1 (centres unmarked) [Example I-54] | 4.31
COC(=O)C1(c2nc(C3=NOC(c4ccccc4-c4ccccc4)C3)cs2)CCN(C(=O)Cn2nc(C(F)F)cc2C)CC1 (centres unmarked) [Example I-61] | 4.09
COC(=O)C1(c2nc(C3=NOC(c4ccccc4-c4ccccc4)C3)cs2)CCN(C(=O)Cn2nc(C(F)(F)F)cc2C)CC1 (centres unmarked) [Example I-68] | 4.49

Same assay, conditions: Table 4, compounds of formula (II); LC-UV, acidic range, 0.1% formic acid in water and acetonitrile as eluent; read-out: Log P[a]

Structure (SMILES) | chromatographic logP
COC(=O)C1(C(N)=S)CCN(C(=O)Cn2nc(C(F)F)cc2C(F)F)CC1 [II-11, methyl 1-{[3,5-bis(difluoromethyl)-1H-pyrazol-1-yl]acetyl}-4-carbamothioylpiperidine-4-carboxylate] | 1.98
COC(=O)C1(C(N)=S)CCN(C(=O)Nc2cc(C(F)F)nn2C)CC1 [II-12, methyl 4-carbamothioyl-1-{[3-(difluoromethyl)-1-methyl-1H-pyrazol-5-yl]carbamoyl}piperidine-4-carboxylate] | 1.33
